Experimental data published in US9611277B2 (Janssen Pharmaceutica NV, priority 2013, dated 2017).

What was measured:
human orexin 2 receptor = human orexin 2 receptor (Homo sapiens (Human), UniProt O43614); assay: Human orexin 2 receptor radioligand binding; details: human orexin 2 receptor; averages of 2-20 runs; read-out: hOX2 Ki
Outline: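 HEK293 cells stably expressing human OX2 receptor, homogenized, incubated with [3H]-EMPA and compounds (DMSO ≤0.1%); nonspecific binding with 10 μM almorexant. Filter-bound radioactivity counted by scintillation; IC50 from one-site competition fit of triplicates, Ki from IC50 and predetermined radioligand Kd, averaged over 2-20 runs.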

human orexin 1 receptor = human orexin 1 receptor (Homo sapiens, UniProt O43613); assay: Human orexin 1 receptor radioligand binding; details: human orexin 1 receptor; averages of 2-20 runs; read-out: hOX1 Ki
Outline: (§1)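 Competition binding with the tritiated thiazolyl-pyrrolidinyl-methanone radioligand in PBS on homogenized rat or human OX1R-expressing cell suspensions, ≤0.1% DMSO; nonspecific binding defined with 10 μM almorexant. Bound radioactivity read by scintillation after filtration; IC50 from one-site competition fit, converted to Ki using pre-determined radioligand Kd.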

rat orexin 1 receptor = rat orexin 1 receptor (Rattus norvegicus, UniProt P56718); assay: Rat orexin 1 receptor radioligand binding; details: rat orexin 1 receptor; averages of 2-20 runs; read-out: rOX1 Ki
Outline: as §1

Chain of human orexin 2 receptor (O43614 whole entry): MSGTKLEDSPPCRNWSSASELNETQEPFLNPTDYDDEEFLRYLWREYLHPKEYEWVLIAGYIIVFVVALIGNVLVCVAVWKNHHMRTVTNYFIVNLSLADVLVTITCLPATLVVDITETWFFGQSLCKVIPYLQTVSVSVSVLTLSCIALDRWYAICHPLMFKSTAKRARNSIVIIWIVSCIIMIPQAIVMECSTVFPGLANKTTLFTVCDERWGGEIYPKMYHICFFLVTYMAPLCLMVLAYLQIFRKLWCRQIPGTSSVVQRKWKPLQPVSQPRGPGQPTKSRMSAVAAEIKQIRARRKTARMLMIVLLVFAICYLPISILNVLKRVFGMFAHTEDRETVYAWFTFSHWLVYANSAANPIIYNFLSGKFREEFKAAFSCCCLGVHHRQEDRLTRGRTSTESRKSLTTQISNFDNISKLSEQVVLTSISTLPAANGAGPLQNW

Row | Ki (human orexin 2 receptor) | Ki (human orexin 1 receptor) | Ki (rat orexin 1 receptor) | SMILES
1 | 264 nM | 33 nM | 55 nM | O=C(c1ccccc1-n1nccn1)N1C[C@H]2C[C@@H](Nc3ccc(C(F)F)cn3)[C@@H]1C2 [Example 173, (2-(2H-1,2,3-triazol-2-yl)phenyl)((1S,4S,6R)-6-((5-(difluoromethyl)pyridin-2-yl)amino)-2-azabicyclo[2.2.1]heptan-2-yl)methanone]
2 | 230 nM | 15 nM | 18 nM | O=C(c1cccc(F)c1-c1ncccn1)N1C[C@H]2C[C@@H](Nc3ccc(C(F)F)cn3)[C@@H]1C2 [Example 174, ((1S,4S,6R)-6-((5-(difluoromethyl)pyridin-2-yl)amino)-2-azabicyclo[2.2.1]heptan-2-yl)(3-fluoro-2-(pyrimidin-2-yl)phenyl)methanone]
3 | 844 nM | 191 nM | 170 nM | COc1ccc(N[C@@H]2C[C@H]3C[C@@H]2N(C(=O)c2ccccc2-n2nccn2)C3)nc1 [Example 175, (2-(2H-1,2,3-triazol-2-yl)phenyl)((1S,4S,6R)-6-((5-methoxypyridin-2-yl)amino)-2-azabicyclo[2.2.1]heptan-2-yl)methanone]
4 | 200 nM | 3 nM | 3 nM | O=C(c1ccccc1-n1nccn1)N1C[C@H]2C[C@@H](Nc3ncc(C(F)(F)F)cc3F)[C@@H]1C2 [Example 177, (2-(2H-1,2,3-triazol-2-yl)phenyl)((1S,4S,6R)-6-((3-fluoro-5-(trifluoromethyl)pyridin-2-yl)amino)-2-azabicyclo[2.2.1]heptan-2-yl)methanone]
5 | 206 nM | 7 nM | 5 nM | O=C(c1cccc(F)c1-c1ncccn1)N1C[C@H]2C[C@@H](Nc3nc4ccccc4o3)[C@@H]1C2 [Example 183, ((1S,4S,6R)-6-(benzo[d]oxazol-2-ylamino)-2-azabicyclo[2.2.1]heptan-2-yl)(3-fluoro-2-(pyrimidin-2-yl)phenyl)methanone]
6 | 146 nM | 33 nM | 27 nM | O=C(c1cccc2cc[nH]c12)N1C[C@H]2C[C@@H](Nc3ccc(C(F)(F)F)cn3)[C@@H]1C2 [Example 185, (1H-indol-7-yl)((1S,4S,6R)-6-((5-(trifluoromethyl)pyridin-2-yl)amino)-2-azabicyclo[2.2.1]heptan-2-yl)methanone]
7 | 2700 nM | 151 nM | 123 nM | O=C(c1cccc2cn[nH]c12)N1C[C@H]2C[C@@H](Nc3ccc(C(F)(F)F)cn3)[C@@H]1C2 [Example 186, (1H-indazol-7-yl)((1S,4S,6R)-6-((5-(trifluoromethyl)pyridin-2-yl)amino)-2-azabicyclo[2.2.1]heptan-2-yl)methanone]
8 | 1600 nM | 30 nM | 28 nM | Cc1cnc(C(=O)N2C[C@H]3C[C@@H](Nc4cnc(C(F)(F)F)cn4)[C@@H]2C3)c(-n2nccn2)c1 [Example 187, (5-methyl-3-(2H-1,2,3-triazol-2-yl)pyridin-2-yl)((1S,4S,6R)-6-((5-(trifluoromethyl)pyrazin-2-yl)amino)-2-azabicyclo[2.2.1]heptan-2-yl)methanone]
9 | > 10000 nM | 210 nM | 191 nM | O=C(c1cccnc1-n1nccn1)N1C[C@H]2C[C@@H](Nc3cnc(C(F)(F)F)cn3)[C@@H]1C2 [Example 188, (2-(2H-1,2,3-triazol-2-yl)pyridin-3-yl)((1S,4S,6R)-6-((5-(trifluoromethyl)pyrazin-2-yl)amino)-2-azabicyclo[2.2.1]heptan-2-yl)methanone]
10 | > 10000 nM | 12 nM | 12 nM | Cc1cnc(C(=O)N2C[C@H]3C[C@@H](Nc4cnc(C(F)(F)F)cn4)[C@@H]2C3)c(-c2ncccn2)c1 [Example 190, (5-methyl-3-(pyrimidin-2-yl)pyridin-2-yl)((1S,4S,6R)-6-((5-(trifluoromethyl)pyrazin-2-yl)amino)-2-azabicyclo[2.2.1]heptan-2-yl)methanone]

The next lines start with the compound.

Row | SMILES | Ki (human orexin 2 receptor) | Ki (human orexin 1 receptor) | Ki (rat orexin 1 receptor)
11 | O=C(c1cccc(F)c1-c1ncccn1)N1C[C@H]2C[C@@H](Nc3ccc(Br)cn3)[C@@H]1C2 [Example 167, ((1S,4S,6R)-6-((5-bromopyridin-2-yl)amino)-2-azabicyclo[2.2.1]heptan-2-yl)(3-fluoro-2-(pyrimidin-2-yl)phenyl)methanone] | 239 nM | 6 nM | 2 nM
12 | O=C(c1c(F)cccc1-c1ncccn1)N1C[C@H]2C[C@@H](Nc3ccc(Br)cn3)[C@@H]1C2 [Example 168, ((1S,4S,6R)-6-((5-bromopyridin-2-yl)amino)-2-azabicyclo[2.2.1]heptan-2-yl)(2-fluoro-6-(pyrimidin-2-yl)phenyl)methanone] | 351 nM | 4 nM | 2 nM
13 | O=C(c1ccccc1-n1nccn1)N1C[C@H]2C[C@@H](Nc3ccc(Cl)cn3)[C@@H]1C2 [Example 169, (2-(2H-1,2,3-triazol-2-yl)phenyl)((1S,4S,6R)-6-((5-chloropyridin-2-yl)amino)-2-azabicyclo[2.2.1]heptan-2-yl)methanone] | 285 nM | 4 nM | 3 nM
14 | O=C(c1cccc(F)c1-c1ncccn1)N1C[C@H]2C[C@@H](Nc3ccc(Cl)cn3)[C@@H]1C2 [Example 170, ((1S,4S,6R)-6-((5-chloropyridin-2-yl)amino)-2-azabicyclo[2.2.1]heptan-2-yl)(3-fluoro-2-(pyrimidin-2-yl)phenyl)methanone] | 321 nM | 12 nM | 4 nM
15 | O=C(c1ccc(F)cc1-c1ncccn1)N1C[C@H]2C[C@@H](Nc3ccc(Cl)cn3)[C@@H]1C2 [Example 171, ((1S,4S,6R)-6-((5-chloropyridin-2-yl)amino)-2-azabicyclo[2.2.1]heptan-2-yl)(4-fluoro-2-(pyrimidin-2-yl)phenyl)methanone] | 1900 nM | 25 nM | 27 nM
16 | COc1ccc(N[C@@H]2C[C@H]3C[C@@H]2N(C(=O)c2cccc(F)c2-c2ncccn2)C3)nc1 [Example 176, (3-fluoro-2-(pyrimidin-2-yl)phenyl)((1S,4S,6R)-6-((5-methoxypyridin-2-yl)amino)-2-azabicyclo[2.2.1]heptan-2-yl)methanone] | 1300 nM | 52 nM | 56 nM
17 | Cc1ccc(-n2nccn2)c(C(=O)N2C[C@H]3C[C@@H](Nc4ncc(C(F)(F)F)cc4F)[C@@H]2C3)n1 [Example 178, ((1S,4S,6R)-6-((3-fluoro-5-(trifluoromethyl)pyridin-2-yl)amino)-2-azabicyclo[2.2.1]heptan-2-yl)(6-methyl-3-(2H-1,2,3-triazol-2-yl)pyridin-2-yl)methanone] | 112 nM | 8 nM | 6 nM
18 | O=C(c1cccc(F)c1-c1ncccn1)N1C[C@H]2C[C@@H](Nc3ncc(C(F)(F)F)cc3F)[C@@H]1C2 [Example 179, (3-fluoro-2-(pyrimidin-2-yl)phenyl)((1S,4S,6R)-6-((3-fluoro-5-(trifluoromethyl)pyridin-2-yl)amino)-2-azabicyclo[2.2.1]heptan-2-yl)methanone] | 217 nM | 5 nM | 5 nM
19 | O=C(c1ccccc1-c1ncc(F)cn1)N1C[C@H]2C[C@@H](Nc3ncc(C(F)(F)F)cc3F)[C@@H]1C2 [Example 180, ((1S,4S,6R)-6-((3-fluoro-5-(trifluoromethyl)pyridin-2-yl)amino)-2-azabicyclo[2.2.1]heptan-2-yl)(2-(5-fluoropyrimidin-2-yl)phenyl)methanone] | 380 nM | 5 nM | 6 nM
20 | Cc1ccc(-n2nccn2)c(C(=O)N2C[C@H]3C[C@@H](Nc4nc5ccccc5o4)[C@@H]2C3)n1 [Example 181, ((1S,4S,6R)-6-(benzo[d]oxazol-2-ylamino)-2-azabicyclo[2.2.1]heptan-2-yl)(6-methyl-3-(2H-1,2,3-triazol-2-yl)pyridin-2-yl)methanone] | 163 nM | 8 nM | 5 nM
21 | O=C(c1cccc(F)c1-n1nccn1)N1C[C@H]2C[C@@H](Nc3nc4ccccc4o3)[C@@H]1C2 [Example 182, ((1S,4S,6R)-6-(benzo[d]oxazol-2-ylamino)-2-azabicyclo[2.2.1]heptan-2-yl)(3-fluoro-2-(2H-1,2,3-triazol-2-yl)phenyl)methanone] | 218 nM | 4 nM | 3 nM
22 | Cc1ccc(N[C@@H]2C[C@H]3C[C@@H]2N(C(=O)c2cccc(F)c2-c2ncccn2)C3)cc1 [Example 184, (3-fluoro-2-(pyrimidin-2-yl)phenyl)((1S,4S,6R)-6-(p-tolylamino)-2-azabicyclo[2.2.1]heptan-2-yl)methanone] | 337 nM | 15 nM | 13 nM
23 | O=C(c1ncccc1-c1ncccn1)N1C[C@H]2C[C@@H](Nc3cnc(C(F)(F)F)cn3)[C@@H]1C2 [Example 189, (3-(pyrimidin-2-yl)pyridin-2-yl)((1S,4S,6R)-6-((5-(trifluoromethyl)pyrazin-2-yl)amino)-2-azabicyclo[2.2.1]heptan-2-yl)methanone] | 678 nM | 11 nM | 14 nM
24 | Cc1ccc(-c2ncccn2)c(C(=O)N2C[C@H]3C[C@@H](Nc4cnc(C(F)(F)F)cn4)[C@@H]2C3)n1 [Example 191, (6-methyl-3-(pyrimidin-2-yl)pyridin-2-yl)((1S,4S,6R)-6-((5-(trifluoromethyl)pyrazin-2-yl)amino)-2-azabicyclo[2.2.1]heptan-2-yl)methanone] | 163 nM | 13 nM | 15 nM
